Tests used:
Type in all cases: cell-based
[1] = target: Fatty acid synthase (Mus musculus) (UniProt P19096); test: Inhibition of FAS in mouse N42 cells assessed as [14C]-acetate incorporation at 10 uM preincubated for 60 mins followed by [14C]-acetate addition and measured after 4 hrs by beta scintillation counting method relative to control; design: scale not given: the % may be the effect or the level left
Fatty acid synthase = Fatty acid synthase (Homo sapiens, UniProt P49327); test: Inhibition of human HeLa cell derived FAS preincubated for 60 mins in presence of acetyl coenzyme A and NADPH followed by malonyl coenzyme A addition and measured after 10 mins by fluorescence method
[2] = target: Fatty acid synthase (Mus musculus) (UniProt P19096); test: Inhibition of FAS in mouse N42 cells assessed as [14C]-acetate incorporation at 100 uM preincubated for 60 mins followed by [14C]-acetate addition and measured after 4 hrs by beta scintillation counting method relative to control; design: scale not given: the % may be the effect or the level left

Sequence of Fatty acid synthase (Mus musculus) (P19096 whole entry): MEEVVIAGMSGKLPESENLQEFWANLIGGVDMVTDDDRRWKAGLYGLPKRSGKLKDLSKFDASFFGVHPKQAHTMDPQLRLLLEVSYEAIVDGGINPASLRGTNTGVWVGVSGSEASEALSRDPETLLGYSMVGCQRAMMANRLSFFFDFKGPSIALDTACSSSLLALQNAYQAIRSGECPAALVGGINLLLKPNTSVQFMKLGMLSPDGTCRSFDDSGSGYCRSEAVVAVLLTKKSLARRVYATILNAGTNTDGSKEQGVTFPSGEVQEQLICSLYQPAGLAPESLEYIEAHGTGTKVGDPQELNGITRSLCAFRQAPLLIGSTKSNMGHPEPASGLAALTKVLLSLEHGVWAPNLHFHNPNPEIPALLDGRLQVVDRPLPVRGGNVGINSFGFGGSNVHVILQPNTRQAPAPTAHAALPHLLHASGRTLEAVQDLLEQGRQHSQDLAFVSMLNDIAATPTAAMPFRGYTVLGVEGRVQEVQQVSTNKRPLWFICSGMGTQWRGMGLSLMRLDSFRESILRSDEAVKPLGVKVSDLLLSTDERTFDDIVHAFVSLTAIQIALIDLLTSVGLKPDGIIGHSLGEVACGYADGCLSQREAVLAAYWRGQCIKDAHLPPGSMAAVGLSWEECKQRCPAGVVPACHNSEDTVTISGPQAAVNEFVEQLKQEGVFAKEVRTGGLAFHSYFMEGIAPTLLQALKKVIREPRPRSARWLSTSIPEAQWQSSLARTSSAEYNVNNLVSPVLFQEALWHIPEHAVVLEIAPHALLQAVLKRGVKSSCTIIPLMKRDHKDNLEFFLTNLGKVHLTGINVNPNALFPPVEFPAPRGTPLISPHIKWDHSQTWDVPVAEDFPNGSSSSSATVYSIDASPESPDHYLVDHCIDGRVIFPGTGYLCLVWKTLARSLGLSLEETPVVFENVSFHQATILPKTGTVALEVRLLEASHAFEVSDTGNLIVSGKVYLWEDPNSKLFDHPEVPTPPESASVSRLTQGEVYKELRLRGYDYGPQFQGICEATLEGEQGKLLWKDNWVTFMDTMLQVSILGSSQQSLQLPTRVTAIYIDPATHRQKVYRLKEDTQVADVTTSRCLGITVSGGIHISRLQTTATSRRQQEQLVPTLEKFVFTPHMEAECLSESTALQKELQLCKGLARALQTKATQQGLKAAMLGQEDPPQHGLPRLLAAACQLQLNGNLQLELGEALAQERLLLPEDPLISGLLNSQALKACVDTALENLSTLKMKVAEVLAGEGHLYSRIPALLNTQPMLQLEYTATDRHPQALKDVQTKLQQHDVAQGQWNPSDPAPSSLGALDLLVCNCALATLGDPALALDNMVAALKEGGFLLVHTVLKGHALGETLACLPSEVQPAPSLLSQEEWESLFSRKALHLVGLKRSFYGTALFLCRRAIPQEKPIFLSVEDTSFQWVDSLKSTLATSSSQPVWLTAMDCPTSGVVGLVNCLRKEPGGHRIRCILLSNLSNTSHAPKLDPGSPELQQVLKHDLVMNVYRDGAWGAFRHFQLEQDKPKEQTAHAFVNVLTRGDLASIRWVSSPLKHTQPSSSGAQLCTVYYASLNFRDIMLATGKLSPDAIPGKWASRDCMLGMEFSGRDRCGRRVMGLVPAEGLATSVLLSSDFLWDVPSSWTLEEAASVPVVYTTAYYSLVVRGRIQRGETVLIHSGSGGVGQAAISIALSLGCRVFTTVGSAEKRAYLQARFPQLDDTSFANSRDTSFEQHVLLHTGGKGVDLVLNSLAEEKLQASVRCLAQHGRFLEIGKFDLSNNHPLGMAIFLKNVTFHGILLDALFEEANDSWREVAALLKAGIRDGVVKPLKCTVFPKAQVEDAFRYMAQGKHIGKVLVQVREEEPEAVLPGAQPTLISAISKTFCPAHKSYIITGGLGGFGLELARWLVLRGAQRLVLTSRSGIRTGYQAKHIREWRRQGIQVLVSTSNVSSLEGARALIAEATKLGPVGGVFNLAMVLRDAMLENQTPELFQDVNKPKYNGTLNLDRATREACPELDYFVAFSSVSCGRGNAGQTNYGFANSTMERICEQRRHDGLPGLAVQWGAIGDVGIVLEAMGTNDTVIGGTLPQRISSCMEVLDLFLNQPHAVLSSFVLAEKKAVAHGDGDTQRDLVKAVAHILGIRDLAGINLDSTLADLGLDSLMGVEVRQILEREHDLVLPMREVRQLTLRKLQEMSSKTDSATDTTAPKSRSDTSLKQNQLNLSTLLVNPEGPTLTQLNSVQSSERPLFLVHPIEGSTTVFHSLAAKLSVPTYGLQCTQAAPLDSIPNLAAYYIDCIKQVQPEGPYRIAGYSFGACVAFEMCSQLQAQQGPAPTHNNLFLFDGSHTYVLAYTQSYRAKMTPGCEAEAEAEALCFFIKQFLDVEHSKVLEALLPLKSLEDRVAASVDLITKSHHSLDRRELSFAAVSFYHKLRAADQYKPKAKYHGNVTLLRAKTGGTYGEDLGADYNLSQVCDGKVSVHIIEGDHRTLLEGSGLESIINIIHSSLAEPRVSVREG
Sequence of Fatty acid synthase (P49327 whole entry): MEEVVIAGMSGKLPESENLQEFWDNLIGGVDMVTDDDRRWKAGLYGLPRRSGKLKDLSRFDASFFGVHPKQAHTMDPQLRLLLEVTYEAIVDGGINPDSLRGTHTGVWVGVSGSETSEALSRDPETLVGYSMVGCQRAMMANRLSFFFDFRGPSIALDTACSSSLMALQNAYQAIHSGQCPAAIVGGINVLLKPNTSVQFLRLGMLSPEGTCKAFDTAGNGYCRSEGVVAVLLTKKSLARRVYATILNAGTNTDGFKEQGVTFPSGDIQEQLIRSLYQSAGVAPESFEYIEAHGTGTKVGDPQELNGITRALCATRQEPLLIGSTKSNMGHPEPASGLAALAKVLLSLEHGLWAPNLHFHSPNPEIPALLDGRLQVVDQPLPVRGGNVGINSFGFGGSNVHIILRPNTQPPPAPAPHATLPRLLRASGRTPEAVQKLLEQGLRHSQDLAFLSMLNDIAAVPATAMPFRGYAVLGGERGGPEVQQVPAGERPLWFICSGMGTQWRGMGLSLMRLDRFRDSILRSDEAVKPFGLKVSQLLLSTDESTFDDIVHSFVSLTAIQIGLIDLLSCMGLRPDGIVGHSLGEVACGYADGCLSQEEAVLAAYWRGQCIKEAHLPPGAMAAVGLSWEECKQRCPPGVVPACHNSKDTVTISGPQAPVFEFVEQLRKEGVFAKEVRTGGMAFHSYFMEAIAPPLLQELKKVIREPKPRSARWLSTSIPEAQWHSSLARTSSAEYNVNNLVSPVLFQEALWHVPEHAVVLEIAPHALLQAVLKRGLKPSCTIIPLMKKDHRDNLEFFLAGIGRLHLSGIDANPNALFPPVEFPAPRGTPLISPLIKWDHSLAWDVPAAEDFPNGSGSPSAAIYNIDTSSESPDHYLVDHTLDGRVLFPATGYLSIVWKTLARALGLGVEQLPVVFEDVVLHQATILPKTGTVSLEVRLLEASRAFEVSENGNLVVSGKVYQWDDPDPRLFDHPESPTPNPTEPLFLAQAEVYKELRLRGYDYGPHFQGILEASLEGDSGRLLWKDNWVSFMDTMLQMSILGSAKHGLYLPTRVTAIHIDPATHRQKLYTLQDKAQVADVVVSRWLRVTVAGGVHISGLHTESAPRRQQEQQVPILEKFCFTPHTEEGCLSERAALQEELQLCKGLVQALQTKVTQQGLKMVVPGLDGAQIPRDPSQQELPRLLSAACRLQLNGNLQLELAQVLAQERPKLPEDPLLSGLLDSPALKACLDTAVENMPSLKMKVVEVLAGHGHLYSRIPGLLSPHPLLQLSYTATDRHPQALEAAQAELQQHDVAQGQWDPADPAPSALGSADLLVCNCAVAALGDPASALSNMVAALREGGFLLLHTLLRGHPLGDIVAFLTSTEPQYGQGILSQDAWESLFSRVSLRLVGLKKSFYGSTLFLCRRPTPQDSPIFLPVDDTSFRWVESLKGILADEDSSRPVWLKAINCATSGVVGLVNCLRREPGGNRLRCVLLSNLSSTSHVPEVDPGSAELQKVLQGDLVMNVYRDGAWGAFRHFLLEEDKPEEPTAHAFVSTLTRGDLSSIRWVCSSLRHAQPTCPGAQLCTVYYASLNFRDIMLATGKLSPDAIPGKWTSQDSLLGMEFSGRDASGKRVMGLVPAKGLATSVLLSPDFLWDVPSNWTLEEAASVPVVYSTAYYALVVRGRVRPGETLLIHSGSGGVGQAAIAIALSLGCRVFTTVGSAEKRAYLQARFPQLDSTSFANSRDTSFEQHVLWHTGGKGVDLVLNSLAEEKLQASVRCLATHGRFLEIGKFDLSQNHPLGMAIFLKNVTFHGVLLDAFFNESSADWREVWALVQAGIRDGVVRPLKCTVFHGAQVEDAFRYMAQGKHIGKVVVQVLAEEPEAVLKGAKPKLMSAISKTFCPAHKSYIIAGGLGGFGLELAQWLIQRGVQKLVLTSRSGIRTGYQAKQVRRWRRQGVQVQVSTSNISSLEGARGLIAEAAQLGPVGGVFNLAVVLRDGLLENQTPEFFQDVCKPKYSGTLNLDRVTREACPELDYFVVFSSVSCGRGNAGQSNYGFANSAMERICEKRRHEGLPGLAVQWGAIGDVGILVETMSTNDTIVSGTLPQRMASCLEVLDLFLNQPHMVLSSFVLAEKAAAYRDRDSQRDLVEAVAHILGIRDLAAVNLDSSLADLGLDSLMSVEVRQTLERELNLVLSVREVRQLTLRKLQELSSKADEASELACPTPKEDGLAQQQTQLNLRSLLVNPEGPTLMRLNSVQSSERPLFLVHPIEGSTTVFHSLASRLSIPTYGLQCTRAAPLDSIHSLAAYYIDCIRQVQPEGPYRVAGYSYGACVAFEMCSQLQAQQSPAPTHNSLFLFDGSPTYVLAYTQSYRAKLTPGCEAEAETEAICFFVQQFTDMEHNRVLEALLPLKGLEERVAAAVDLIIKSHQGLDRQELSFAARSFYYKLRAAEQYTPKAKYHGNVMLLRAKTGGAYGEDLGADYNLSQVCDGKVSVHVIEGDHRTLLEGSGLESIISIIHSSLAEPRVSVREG

## CCC(=O)N[C@H]1CC[C@@H](C(=O)N(C)c2ccc(-c3nc4ccccc4n3C)cc2)C1
[1]
  Activity: 85.7%

## CCC(=O)N[C@H]1CC[C@@H](C(=O)N(C)c2ccc(-c3nc4ccccc4[nH]3)cc2)C1
[1]
  Activity: 80.8%

## CN(C)CCCCCC(=O)N[C@H]1CC[C@@H](C(=O)N(C)c2ccc(-c3nc4ccccc4o3)cc2)C1
Fatty acid synthase
  IC50: 500 to 3000 nM

## C/C=C/C/C=C/CCC(=O)[C@H]1O[C@H]1C(N)=O
[2]
  Activity: 73.3%

## CCC(=O)N[C@H]1CC[C@@H](C(=O)N(C)c2ccc(-c3ccccc3)cc2)C1
[1]
  Activity: 76.8%

## CC(=O)N[C@H]1CC[C@@H](C(=O)N(C)c2ccc(-c3nc4ccccc4o3)cc2)C1
[1]
  Activity: 81.7%

## CCCC(=O)N[C@H]1CC[C@@H](C(=O)N(C)c2ccc(-c3nc4ccccc4o3)cc2)C1
[1]
  Activity: 81%

## CCC(=O)N[C@H]1CC[C@@H](C(=O)N(C)c2ccc(-c3nc4ccccc4o3)cc2)C1
[1]
  Activity: 64.1%
